Data reported in patent publication US20090110671A1, “AGENT FOR ENHANCHING THE PRODUCTION OF COLLAGEN AND IT'S USE” (priority 2005, published 2009).

Test system: flabby skin or skin wrinkles/finely-wrinkles
Assay: Experiment 6: self-evaluation of lotions with AMP and/or CoQ10 on flabby skin or skin wrinkles/finely-wrinkles, three months
Assay type: in vivo, human
Settings: lotion, 3 months
Text: Eleven women as volunteers, who had been suffering from skin wrinkles/finely-wrinkles or flabby skin, were allowed to wash their faces with any of the lotions having compositions in Table 5 three times a day for four months and then allowed to evaluate themselves about their face-skin conditions by comparing with those before use of the lotions. […] The influence of a combination use of α,α-trehalose or saccharide derivatives thereof, sodium hyaluronate and/or chondroitin sulfate, and adenosine monophosphate (may be abbreviated as “AMP”, hereinafter) and/or coenzyme Q10 (may be abbreviated as “CoQ10”, hereinafter) on the skin was examined by the following experiment. One hundred parts by weight of respective lotions were prepared by adding to fresh preparations of the same lotion with the basic composition ratio as used in Experiment 5 sodium hyaluronate, chondroitin sulfate, hydrous crystalline α,α-trehalose, a cosmetic grade specimen commercialized by Hayashibara Biochemical Laboratories Inc., Okayama, Japan, and “[…]”, a product name of a syrup having saccharide derivatives of α,α-trehalose commercialized by Hayashibara Biochemical Laboratories Inc., Okayama, Japan, AMP, and CoQ10 according to the combinations and compositions as in Table 6 below. The amounts of added saccharides are represented based on a dry solid basis. The syrup containing saccharide derivatives of α,α-trehalose was added to each lotion to give respective composition ratios as in Table 6. Any of the lotions was allowed to be used every day by 11 females who had been suffering from flabby skin or skin wrinkles/finely-wrinkles, three times a day for three months, and the results were evaluated on flabby skin or skin wrinkles/finely-wrinkles by the method similarly as in Experiment 5.

[1] = saccharide one part by weight + AMP 0.1 + CoQ10 0.1
[2] = saccharide one part by weight + AMP 0.2
[3] = saccharide one part by weight + CoQ10 0.2
[4] = saccharide one part by weight + sodium hyaluronate 0.1 + chondroitin sulfate 0.1 + AMP 0.1 + CoQ10 0.1
[5] = saccharide one part by weight + sodium hyaluronate 0.1 + chondroitin sulfate 0.1 + AMP 0.2
[6] = saccharide one part by weight + sodium hyaluronate 0.1 + chondroitin sulfate 0.1 + CoQ10 0.2
[7] = saccharide one part by weight + sodium hyaluronate 0.1 + chondroitin sulfate 0.1
[8] = saccharide one part by weight alone, 3 times a day

Question: For `OC[C@H]1O[C@H](O[C@H]2O[C@H](CO)[C@@H](O)[C@H](O)[C@H]2O)[C@H](O)[C@@H](O)[C@@H]1O` [α,α-trehalose], which “Evaluation A (remarkably efficacious)” value [1] is on record?
Answer: 2 number of volunteers

Question: What about the “Evaluation B (efficacious)” value [1] of the same compound?
Answer: 3 number of volunteers

Question: And the “Evaluation C (slightly efficacious)” value [1]?
Answer: 5 number of volunteers

Question: And the “Evaluation D (inefficacious)” value [1]?
Answer: 1 number of volunteers

Question: What about the “Evaluation A (remarkably efficacious)” value [2] of the same compound?
Answer: 2 number of volunteers

Question: What about the “Evaluation B (efficacious)” value [2] of the same compound?
Answer: 2 number of volunteers

Question: And the “Evaluation C (slightly efficacious)” value [2]?
Answer: 6 number of volunteers

Question: What about the “Evaluation D (inefficacious)” value [2] of the same compound?
Answer: 1 number of volunteers

Question: And the “Evaluation A (remarkably efficacious)” value [3]?
Answer: 1 number of volunteers

Question: What about the “Evaluation B (efficacious)” value [3] of the same compound?
Answer: 3 number of volunteers

Question: And the “Evaluation C (slightly efficacious)” value [3]?
Answer: 6 number of volunteers

Question: And the “Evaluation D (inefficacious)” value [3]?
Answer: 1 number of volunteers

Question: And the “Evaluation A (remarkably efficacious)” value [4]?
Answer: 5 number of volunteers

Question: What about the “Evaluation B (efficacious)” value [4] of the same compound?
Answer: 5 number of volunteers

Question: What about the “Evaluation C (slightly efficacious)” value [4] of the same compound?
Answer: 1 number of volunteers

Question: And the “Evaluation D (inefficacious)” value [4]?
Answer: 0 number of volunteers

Question: And the “Evaluation A (remarkably efficacious)” value [5]?
Answer: 3 number of volunteers

Question: What about the “Evaluation B (efficacious)” value [5] of the same compound?
Answer: 4 number of volunteers

Question: What about the “Evaluation C (slightly efficacious)” value [5] of the same compound?
Answer: 4 number of volunteers

Question: And the “Evaluation D (inefficacious)” value [5]?
Answer: 0 number of volunteers

Question: And the “Evaluation A (remarkably efficacious)” value [6]?
Answer: 4 number of volunteers

Question: What about the “Evaluation B (efficacious)” value [6] of the same compound?
Answer: 3 number of volunteers

Question: And the “Evaluation C (slightly efficacious)” value [6]?
Answer: 4 number of volunteers

Question: And the “Evaluation D (inefficacious)” value [6]?
Answer: 0 number of volunteers

Question: What about the “Evaluation A (remarkably efficacious)” value [7] of the same compound?
Answer: 2 number of volunteers

Question: And the “Evaluation B (efficacious)” value [7]?
Answer: 4 number of volunteers

Question: And the “Evaluation C (slightly efficacious)” value [7]?
Answer: 4 number of volunteers

Question: And the “Evaluation D (inefficacious)” value [7]?
Answer: 1 number of volunteers

Question: What about the “Evaluation A (remarkably efficacious)” value [8] of the same compound?
Answer: 1 number of volunteers

Question: And the “Evaluation B (efficacious)” value [8]?
Answer: 2 number of volunteers

Question: What about the “Evaluation C (slightly efficacious)” value [8] of the same compound?
Answer: 6 number of volunteers

Question: And the “Evaluation D (inefficacious)” value [8]?
Answer: 2 number of volunteers
